System: C. albicans wild-type
Assay: microbe, parasite or virus in culture
Set-up: species or system whole yeast cells; micro-culture broth dilution MIC in YES at 30 C, turbidity, complete growth inhibition
Details: Candida albicans; YES medium, C. albicans strain f
Procedure: (§1) Standard YEPD (Yeast Extract, Peptone, Dextrose) ([Sherman, 1990]), YEPD+S (YEPD with 1.2M sorbitol), YES (Yeast Extract, Dextrose and Supplements of Adenine, Histidine, Leucine, Uracil and Lysine) ([Alfa et al., 1993]) and YES+S (YES with 1.2 M sorbitol) ([Ribas et al., 1991]; [Ishiguro et al., 1997]), media were used for determination of MIC values of the tested compounds. A stock solution of 10 mg/ml of each tested compounds was prepared in DMSO and serial dilutions in DMSO were prepared. The final concentration of DMSO was 2% in the YEPD medium. […] The serial dilutions of compounds were dispensed into test tubes with 1 ml of YEPD or YEPD+S to make final concentrations of 200, 100, 50, 25, 12.5, 6.26, 3.125, 1.6, 0.8 and 0.4 μg/ml. The tested yeast strains were previously grown in YEPD, YEPD+S, YES or YES+S agar plates at 30°C for 48 h. Micro-culture assays of large numbers of samples were analyzed as described) ([Martins et al., 2011]). Essentially early log-phase cells were grown in YEPD, YEPD+S, YES or YES+S (1.2 M sorbitol) medium at 30°C, and diluted to cell density of 4 X 10^6 cells/ml in YEPD, YEPD+S, YES or YES+S medium and aliquots of 100 μl were dispensed into each small test tube (3 ml test tube size). Then, another 100 μl of YEPD, YEPD+S, YES or YES+S with the corresponding dilution of each compound at 2X concentration (4% DMSO) was added. The final volume was 200 μl, with the cells diluted to of 2 X 10^6 cells/ml and each compound diluted to 1X final concentration, containing increasing concentrations of antifungal (0, 1, 2, 5, 10, 20, 50, 100 and 200 μg/ml) or an equivalent volume of solvent (2% DMSO). The cells were grown at 30°C in an orbital roller and turbidity was analyzed after 24 and 48 h of incubation. The MIC was determined as the minimal concentration of tested compound that produced complete cell growth inhibition and kept the medium clear. The MIC values were calculated from at least three independent experiments. Next, the first generation of isochromanones (1E-16E) was also screened in YES medium (Table 5) and exerted a weaker antifungal potency than in YEPD medium and also than the second family of isochromanones in YES medium (17E-30E) (Table 6). The strains are partly different from the previously mentioned ones (Tables 5, 6) analyzing two wild type C. albicans strains because they behaved similarly in YEPD. It is remarkable that there was no effect against either the C. albicans, the S. cerevisiae, or the S. pombe wild-type strains, except with 30E.

SMILES | MIC
Cc1ccc(/C=C2/C(=O)OCc3ccccc32)cc1 [19E] | > 200 µg/mL
O=C1OCc2ccccc2/C1=C/c1ccc([N+](=O)[O-])cc1 [17Z] | > 200 µg/mL
O=C1OCc2ccccc2/C1=C\c1ccc2c(c1)OCO2 [27E] | > 200 µg/mL

Same assay, conditions: Candida albicans; YES medium, C. albicans strain g

SMILES | MIC
Cc1ccc(/C=C2/C(=O)OCc3ccccc32)cc1 [19E] | > 200 µg/mL
O=C1OCc2ccccc2/C1=C/c1ccc([N+](=O)[O-])cc1 [17Z] | > 200 µg/mL
O=C1OCc2ccccc2/C1=C\c1ccc2c(c1)OCO2 [27E] | > 200 µg/mL

System: T1, S. cerevisiae wild-type CVX12-3A
T1 construct: CVX12-3A
Assay: microbe, parasite or virus in culture
Set-up: species or system whole yeast cells; micro-culture broth dilution MIC in YES at 30 C, turbidity, complete growth inhibition
Details: Saccharomyces cerevisiae; YES medium
Procedure: as §1

SMILES | MIC
Cc1ccc(/C=C2/C(=O)OCc3ccccc32)cc1 [19E] | > 200 µg/mL
O=C1OCc2ccccc2/C1=C/c1ccc([N+](=O)[O-])cc1 [17Z] | > 200 µg/mL
O=C1OCc2ccccc2/C1=C\c1ccc2c(c1)OCO2 [27E] | > 200 µg/mL

System: T2, S. pombe wild-type 972 h-
T2 construct: 972 h-
Assay: microbe, parasite or virus in culture
Set-up: species or system whole yeast cells; micro-culture broth dilution MIC in YES at 30 C, turbidity, complete growth inhibition
Details: Schizosaccharomyces pombe; YES medium
Procedure: as §1

SMILES | MIC
Cc1ccc(/C=C2/C(=O)OCc3ccccc32)cc1 [19E] | > 200 µg/mL
O=C1OCc2ccccc2/C1=C/c1ccc([N+](=O)[O-])cc1 [17Z] | > 200 µg/mL
O=C1OCc2ccccc2/C1=C\c1ccc2c(c1)OCO2 [27E] | > 200 µg/mL

System: Candida albicans C. a.^g (Table 6)
Assay: microbe, parasite or virus in culture
Set-up: species or system yeast; micro tube dilution MIC in YES (± 1.2 M sorbitol), complete growth inhibition by turbidity
Details: 48 h, YES + 1.2 M sorbitol
Procedure: as §1, with “experiments.” for “experiments. Next, the first generation of isochromanones (1E-16E) was also screened in YES medium (Table 5) and exerted a weaker antifungal potency than in YEPD medium and also than the second family of isochromanones in YES medium (17E-30E) (Table 6). The strains are partly different from the previously mentioned ones (Tables 5, 6) analyzing two wild type C. albicans strains because they behaved similarly in YEPD. It is remarkable that there was no effect against either the C. albicans, the S. cerevisiae, or the S. pombe wild-type strains, except with 30E.”

SMILES | MIC
Cc1ccc(/C=C2/C(=O)OCc3ccccc32)cc1 [19E] | > 200 µg/mL
O=C1OCc2ccccc2/C1=C/c1ccc([N+](=O)[O-])cc1 [17Z] | > 200 µg/mL
O=C1OCc2ccccc2/C1=C\c1ccc2c(c1)OCO2 [27E] | > 200 µg/mL

System: T3, Saccharomyces cerevisiae S. c.^d (wild-type CVX12-3A)
T3 construct: CVX12-3A
Assay: microbe, parasite or virus in culture
Set-up: species or system yeast; micro tube dilution MIC in YES (± 1.2 M sorbitol), complete growth inhibition by turbidity
Details: 48 h, YES + 1.2 M sorbitol
Procedure: as §1, with “experiments.” for “experiments. Next, the first generation of isochromanones (1E-16E) was also screened in YES medium (Table 5) and exerted a weaker antifungal potency than in YEPD medium and also than the second family of isochromanones in YES medium (17E-30E) (Table 6). The strains are partly different from the previously mentioned ones (Tables 5, 6) analyzing two wild type C. albicans strains because they behaved similarly in YEPD. It is remarkable that there was no effect against either the C. albicans, the S. cerevisiae, or the S. pombe wild-type strains, except with 30E.”

SMILES | MIC
Cc1ccc(/C=C2/C(=O)OCc3ccccc32)cc1 [19E] | > 200 µg/mL
O=C1OCc2ccccc2/C1=C/c1ccc([N+](=O)[O-])cc1 [17Z] | > 200 µg/mL
O=C1OCc2ccccc2/C1=C\c1ccc2c(c1)OCO2 [27E] | > 200 µg/mL

System: Candida albicans C. a.^f (Tables 5, 6)
Assay: microbe, parasite or virus in culture
Set-up: species or system yeast; micro tube dilution MIC in YES (± 1.2 M sorbitol), complete growth inhibition by turbidity
Details: 48 h, YES + 1.2 M sorbitol
Procedure: as §1, with “experiments.” for “experiments. Next, the first generation of isochromanones (1E-16E) was also screened in YES medium (Table 5) and exerted a weaker antifungal potency than in YEPD medium and also than the second family of isochromanones in YES medium (17E-30E) (Table 6). The strains are partly different from the previously mentioned ones (Tables 5, 6) analyzing two wild type C. albicans strains because they behaved similarly in YEPD. It is remarkable that there was no effect against either the C. albicans, the S. cerevisiae, or the S. pombe wild-type strains, except with 30E.”

SMILES | MIC
Cc1ccc(/C=C2/C(=O)OCc3ccccc32)cc1 [19E] | > 200 µg/mL
O=C1OCc2ccccc2/C1=C/c1ccc([N+](=O)[O-])cc1 [17Z] | > 200 µg/mL
O=C1OCc2ccccc2/C1=C\c1ccc2c(c1)OCO2 [27E] | > 200 µg/mL

System: T4, Schizosaccharomyces pombe S. p.^a (wild-type 972 h-)
T4 construct: 972 h-
Assay: microbe, parasite or virus in culture
Set-up: species or system yeast; micro tube dilution MIC in YES (± 1.2 M sorbitol), complete growth inhibition by turbidity
Details: 48 h, YES + 1.2 M sorbitol
Procedure: as §1, with “experiments.” for “experiments. Next, the first generation of isochromanones (1E-16E) was also screened in YES medium (Table 5) and exerted a weaker antifungal potency than in YEPD medium and also than the second family of isochromanones in YES medium (17E-30E) (Table 6). The strains are partly different from the previously mentioned ones (Tables 5, 6) analyzing two wild type C. albicans strains because they behaved similarly in YEPD. It is remarkable that there was no effect against either the C. albicans, the S. cerevisiae, or the S. pombe wild-type strains, except with 30E.”

SMILES | MIC
Cc1ccc(/C=C2/C(=O)OCc3ccccc32)cc1 [19E] | > 200 µg/mL
O=C1OCc2ccccc2/C1=C/c1ccc([N+](=O)[O-])cc1 [17Z] | > 200 µg/mL
O=C1OCc2ccccc2/C1=C\c1ccc2c(c1)OCO2 [27E] | > 200 µg/mL

Source: PMC6689975, “Novel Cell Wall Antifungals Reveal a Special Synergistic Activity in pbr1 Mutants Resistant to the Glucan Synthesis Antifungals Papulacandins and Echinocandins” (Frontiers in Microbiology, 2019)
